From ChEMBL document CHEMBL5303763, “Data for DCP probe BI-3802” (2023)
Active and inactive are the calls of the source. The rule behind the calls is not given here.

Experiments:
[1] = target: 5-hydroxytryptamine receptor 1B (Homo sapiens) (UniProt P28222); experiment: 5HT1B(H) Eurofins SafetyScreen44 (BI); details: filed as antagonist, Compound concentration 10.0 uM
[2] = target: Cannabinoid receptor 1 (Homo sapiens) (UniProt P21554); experiment: CB1(HU)_AGON Eurofins SafetyScreen44 (BI); details: filed as agonist; Compound concentration 10.0 uM
Sequence of Cannabinoid receptor 1 (Homo sapiens) (P21554 whole entry): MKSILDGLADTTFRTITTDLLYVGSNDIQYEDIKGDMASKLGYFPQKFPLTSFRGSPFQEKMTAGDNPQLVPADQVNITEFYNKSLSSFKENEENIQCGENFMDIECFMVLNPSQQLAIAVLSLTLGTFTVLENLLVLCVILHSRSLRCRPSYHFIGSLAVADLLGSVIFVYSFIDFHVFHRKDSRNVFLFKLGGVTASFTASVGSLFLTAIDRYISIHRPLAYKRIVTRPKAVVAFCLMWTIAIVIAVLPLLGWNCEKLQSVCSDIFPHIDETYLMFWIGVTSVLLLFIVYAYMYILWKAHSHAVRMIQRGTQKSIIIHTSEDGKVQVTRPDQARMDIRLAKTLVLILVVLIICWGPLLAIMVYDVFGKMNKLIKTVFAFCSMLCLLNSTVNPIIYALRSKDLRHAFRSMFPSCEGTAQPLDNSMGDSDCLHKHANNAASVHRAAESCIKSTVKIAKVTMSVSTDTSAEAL

[3] = target: B-cell lymphoma 6 protein (Homo sapiens, UniProt P41182); experiment: BCL6::NCOR LUMIER in cells
[4] = target: RAC-beta serine/threonine-protein kinase (Homo sapiens) (UniProt P31751); experiment: AKT2 Invitrogen Lab (UK) kinase screen (BI); details: Compound concentration 1.0 uM
Sequence of RAC-beta serine/threonine-protein kinase (Homo sapiens) (P31751 whole entry): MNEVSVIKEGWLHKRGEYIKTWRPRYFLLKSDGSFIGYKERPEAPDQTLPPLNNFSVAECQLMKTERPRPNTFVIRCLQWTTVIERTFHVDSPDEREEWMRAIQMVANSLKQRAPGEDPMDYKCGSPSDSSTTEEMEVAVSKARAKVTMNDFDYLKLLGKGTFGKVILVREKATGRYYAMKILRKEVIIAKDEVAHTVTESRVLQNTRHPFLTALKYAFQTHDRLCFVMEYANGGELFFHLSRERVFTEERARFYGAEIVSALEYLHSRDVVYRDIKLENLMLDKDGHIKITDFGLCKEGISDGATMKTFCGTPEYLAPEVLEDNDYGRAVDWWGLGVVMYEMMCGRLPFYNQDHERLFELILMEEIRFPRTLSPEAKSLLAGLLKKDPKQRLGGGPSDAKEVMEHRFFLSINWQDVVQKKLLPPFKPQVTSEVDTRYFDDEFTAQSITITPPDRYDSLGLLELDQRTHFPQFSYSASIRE

[5] = target: AMP-activated protein kinase (AMPK) alpha-1/beta-1/gamma-1 (Homo sapiens) (UniProt P54619+Q9Y478+Q13131); experiment: AMPK A1B1G1 Invitrogen Lab (UK) kinase screen (BI); format: protein-complex assay; details: Compound concentration 1.0 uM
[6] = target: Serine/threonine-protein kinase Chk2 (Homo sapiens) (UniProt O96017); experiment: CHEK2 Invitrogen Lab (UK) kinase screen (BI); details: Compound concentration 1.0 uM
[7] = target: Dual specificity mitogen-activated protein kinase kinase 2 (Homo sapiens) (UniProt P36507); experiment: MAP2K2 Invitrogen Lab (UK) kinase screen (BI); details: Compound concentration 1.0 uM
Sequence of Dual specificity mitogen-activated protein kinase kinase 2 (Homo sapiens) (P36507 whole entry): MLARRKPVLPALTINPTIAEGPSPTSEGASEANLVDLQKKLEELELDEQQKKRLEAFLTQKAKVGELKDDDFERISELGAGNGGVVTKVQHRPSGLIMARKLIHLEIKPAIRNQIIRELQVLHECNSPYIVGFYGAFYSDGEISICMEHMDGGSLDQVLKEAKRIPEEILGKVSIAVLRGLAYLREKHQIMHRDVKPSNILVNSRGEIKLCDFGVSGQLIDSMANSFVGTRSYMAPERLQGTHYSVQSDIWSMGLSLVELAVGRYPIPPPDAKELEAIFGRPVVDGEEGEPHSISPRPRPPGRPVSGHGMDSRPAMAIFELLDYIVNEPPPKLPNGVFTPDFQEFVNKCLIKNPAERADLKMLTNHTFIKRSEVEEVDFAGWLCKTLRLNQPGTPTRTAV

[8] = target: Mitogen-activated protein kinase 1 (Homo sapiens) (UniProt P28482); experiment: MAPK1 Invitrogen Lab (UK) kinase screen (BI); details: Compound concentration 1.0 uM
[9] = target: Myosin light chain kinase 2, skeletal/cardiac muscle (Homo sapiens) (UniProt Q9H1R3); experiment: MYLK2 Invitrogen Lab (UK) kinase screen (BI); details: Compound concentration 1.0 uM
[10] = target: Phosphatidylinositol 4,5-bisphosphate 3-kinase catalytic subunit gamma isoform (Homo sapiens) (UniProt P48736); experiment: PIK3CG Invitrogen Lab (UK) kinase screen (BI); details: Compound concentration 1.0 uM
Sequence of Phosphatidylinositol 4,5-bisphosphate 3-kinase catalytic subunit gamma isoform (Homo sapiens) (P48736 whole entry, looked up, canonical isoform): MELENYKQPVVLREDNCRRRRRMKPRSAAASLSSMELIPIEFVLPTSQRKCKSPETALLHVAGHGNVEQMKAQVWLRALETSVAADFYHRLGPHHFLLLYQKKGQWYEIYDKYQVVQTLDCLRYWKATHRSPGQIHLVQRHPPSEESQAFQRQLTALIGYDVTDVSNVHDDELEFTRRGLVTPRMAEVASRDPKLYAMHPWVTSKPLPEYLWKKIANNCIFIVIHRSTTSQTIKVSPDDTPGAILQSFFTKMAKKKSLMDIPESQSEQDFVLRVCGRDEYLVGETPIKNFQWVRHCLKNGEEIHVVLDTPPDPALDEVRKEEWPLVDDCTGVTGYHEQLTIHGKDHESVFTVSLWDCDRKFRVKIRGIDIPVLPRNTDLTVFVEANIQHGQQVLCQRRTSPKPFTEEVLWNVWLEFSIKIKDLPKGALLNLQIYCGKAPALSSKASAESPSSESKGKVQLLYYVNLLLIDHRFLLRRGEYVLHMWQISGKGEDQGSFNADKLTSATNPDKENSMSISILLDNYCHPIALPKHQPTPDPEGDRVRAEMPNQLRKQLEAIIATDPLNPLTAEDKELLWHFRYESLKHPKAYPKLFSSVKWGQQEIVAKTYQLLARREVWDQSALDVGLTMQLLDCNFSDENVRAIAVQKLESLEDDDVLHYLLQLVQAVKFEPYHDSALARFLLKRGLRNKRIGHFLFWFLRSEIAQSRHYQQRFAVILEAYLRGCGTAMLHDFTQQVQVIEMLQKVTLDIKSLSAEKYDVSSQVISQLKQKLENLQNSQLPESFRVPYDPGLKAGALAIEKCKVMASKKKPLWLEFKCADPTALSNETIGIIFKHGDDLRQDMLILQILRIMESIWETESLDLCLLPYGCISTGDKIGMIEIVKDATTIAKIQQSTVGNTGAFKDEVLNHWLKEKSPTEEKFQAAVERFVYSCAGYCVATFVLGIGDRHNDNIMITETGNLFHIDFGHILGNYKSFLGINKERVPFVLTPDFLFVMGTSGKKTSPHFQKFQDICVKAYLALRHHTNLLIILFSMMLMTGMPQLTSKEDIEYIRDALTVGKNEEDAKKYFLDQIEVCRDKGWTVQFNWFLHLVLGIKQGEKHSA

[11] = target: Protein kinase C alpha type (Homo sapiens) (UniProt P17252); experiment: PRKCA Invitrogen Lab (UK) kinase screen (BI); details: Compound concentration 1.0 uM
[12] = target: T1, 5-hydroxytryptamine receptor 1A (Homo sapiens) (UniProt P08908); details: Compound concentration 10.0 uM
T1 sequence (whole entry): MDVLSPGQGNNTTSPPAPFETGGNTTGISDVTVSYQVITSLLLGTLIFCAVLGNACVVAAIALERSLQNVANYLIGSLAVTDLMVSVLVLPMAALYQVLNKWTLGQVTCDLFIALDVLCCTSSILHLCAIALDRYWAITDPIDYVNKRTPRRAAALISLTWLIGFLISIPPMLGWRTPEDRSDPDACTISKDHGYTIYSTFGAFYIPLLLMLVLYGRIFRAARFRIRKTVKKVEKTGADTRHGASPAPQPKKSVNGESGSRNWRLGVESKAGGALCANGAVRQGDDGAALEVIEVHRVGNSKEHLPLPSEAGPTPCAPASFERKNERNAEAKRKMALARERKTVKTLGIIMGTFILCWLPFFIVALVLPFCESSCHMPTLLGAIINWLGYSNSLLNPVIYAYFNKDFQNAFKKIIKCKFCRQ

[13] = target: 5-hydroxytryptamine receptor 2A (Homo sapiens) (UniProt P28223); details: Compound concentration 10.0 uM
Sequence of 5-hydroxytryptamine receptor 2A (Homo sapiens) (P28223 whole entry): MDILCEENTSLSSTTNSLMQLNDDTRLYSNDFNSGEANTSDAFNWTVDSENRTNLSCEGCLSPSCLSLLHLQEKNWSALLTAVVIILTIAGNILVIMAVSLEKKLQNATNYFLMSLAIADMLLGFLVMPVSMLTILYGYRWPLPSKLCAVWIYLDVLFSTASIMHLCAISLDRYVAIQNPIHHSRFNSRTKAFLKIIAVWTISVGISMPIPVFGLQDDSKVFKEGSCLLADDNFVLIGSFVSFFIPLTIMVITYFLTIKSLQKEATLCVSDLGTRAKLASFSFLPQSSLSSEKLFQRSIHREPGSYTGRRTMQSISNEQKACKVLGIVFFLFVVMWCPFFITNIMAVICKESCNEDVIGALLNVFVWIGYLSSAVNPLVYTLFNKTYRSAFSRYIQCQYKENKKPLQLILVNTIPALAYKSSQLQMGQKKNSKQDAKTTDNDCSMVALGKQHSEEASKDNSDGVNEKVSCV

[14] = target: 5-hydroxytryptamine receptor 7 (Homo sapiens) (UniProt P34969); details: Compound concentration 10.0 uM
Sequence of 5-hydroxytryptamine receptor 7 (Homo sapiens) (P34969 whole entry): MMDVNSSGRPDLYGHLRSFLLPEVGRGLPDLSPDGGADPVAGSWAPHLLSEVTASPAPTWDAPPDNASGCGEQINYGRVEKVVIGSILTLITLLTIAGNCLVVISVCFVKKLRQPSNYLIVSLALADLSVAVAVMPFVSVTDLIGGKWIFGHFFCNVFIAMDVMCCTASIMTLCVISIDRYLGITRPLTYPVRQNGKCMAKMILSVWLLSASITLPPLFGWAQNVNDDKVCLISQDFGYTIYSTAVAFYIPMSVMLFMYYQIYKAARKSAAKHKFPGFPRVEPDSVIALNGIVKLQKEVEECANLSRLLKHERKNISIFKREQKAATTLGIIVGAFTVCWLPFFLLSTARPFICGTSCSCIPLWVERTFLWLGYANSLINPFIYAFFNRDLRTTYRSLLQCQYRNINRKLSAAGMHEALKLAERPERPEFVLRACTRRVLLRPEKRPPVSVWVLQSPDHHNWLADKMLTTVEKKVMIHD

[15] = target: D(2) dopamine receptor (Homo sapiens) (UniProt P14416); details: Compound concentration 10.0 uM
Sequence of D(2) dopamine receptor (Homo sapiens) (P14416 whole entry): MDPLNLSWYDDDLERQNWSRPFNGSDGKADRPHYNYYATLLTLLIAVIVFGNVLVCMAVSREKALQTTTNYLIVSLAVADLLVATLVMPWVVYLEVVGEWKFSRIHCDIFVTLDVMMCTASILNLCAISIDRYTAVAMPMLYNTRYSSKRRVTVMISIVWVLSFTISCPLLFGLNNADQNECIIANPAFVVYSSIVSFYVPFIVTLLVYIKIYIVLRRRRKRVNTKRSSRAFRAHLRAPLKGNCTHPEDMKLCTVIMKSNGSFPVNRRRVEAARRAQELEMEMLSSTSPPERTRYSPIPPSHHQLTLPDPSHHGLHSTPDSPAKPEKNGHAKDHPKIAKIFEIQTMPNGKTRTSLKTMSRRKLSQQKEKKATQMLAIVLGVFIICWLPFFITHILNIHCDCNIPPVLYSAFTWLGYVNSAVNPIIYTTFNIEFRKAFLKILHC

[16] = target: Sodium-dependent serotonin transporter (Homo sapiens) (UniProt P31645); details: Compound concentration 10.0 uM
Sequence of Sodium-dependent serotonin transporter (Homo sapiens) (P31645 whole entry, looked up): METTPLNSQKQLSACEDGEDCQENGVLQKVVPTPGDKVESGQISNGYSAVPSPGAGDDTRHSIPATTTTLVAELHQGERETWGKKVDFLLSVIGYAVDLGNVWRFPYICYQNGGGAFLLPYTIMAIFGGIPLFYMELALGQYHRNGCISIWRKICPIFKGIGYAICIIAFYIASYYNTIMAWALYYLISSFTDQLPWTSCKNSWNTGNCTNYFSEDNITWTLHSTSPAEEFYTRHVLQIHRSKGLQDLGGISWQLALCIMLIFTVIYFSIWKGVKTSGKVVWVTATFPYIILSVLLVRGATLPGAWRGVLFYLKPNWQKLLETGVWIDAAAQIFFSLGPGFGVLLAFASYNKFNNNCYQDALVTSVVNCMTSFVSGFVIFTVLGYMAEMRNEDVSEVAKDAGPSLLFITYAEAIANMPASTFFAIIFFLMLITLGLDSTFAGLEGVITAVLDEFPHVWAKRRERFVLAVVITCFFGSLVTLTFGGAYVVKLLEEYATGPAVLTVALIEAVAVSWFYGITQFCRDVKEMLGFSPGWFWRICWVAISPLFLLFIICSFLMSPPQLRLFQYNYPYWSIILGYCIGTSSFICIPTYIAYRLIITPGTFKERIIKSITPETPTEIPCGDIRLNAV

[17] = target: Alpha-1B adrenergic receptor (Homo sapiens) (UniProt P35368); details: Compound concentration 10.0 uM
Sequence of Alpha-1B adrenergic receptor (Homo sapiens) (P35368 whole entry): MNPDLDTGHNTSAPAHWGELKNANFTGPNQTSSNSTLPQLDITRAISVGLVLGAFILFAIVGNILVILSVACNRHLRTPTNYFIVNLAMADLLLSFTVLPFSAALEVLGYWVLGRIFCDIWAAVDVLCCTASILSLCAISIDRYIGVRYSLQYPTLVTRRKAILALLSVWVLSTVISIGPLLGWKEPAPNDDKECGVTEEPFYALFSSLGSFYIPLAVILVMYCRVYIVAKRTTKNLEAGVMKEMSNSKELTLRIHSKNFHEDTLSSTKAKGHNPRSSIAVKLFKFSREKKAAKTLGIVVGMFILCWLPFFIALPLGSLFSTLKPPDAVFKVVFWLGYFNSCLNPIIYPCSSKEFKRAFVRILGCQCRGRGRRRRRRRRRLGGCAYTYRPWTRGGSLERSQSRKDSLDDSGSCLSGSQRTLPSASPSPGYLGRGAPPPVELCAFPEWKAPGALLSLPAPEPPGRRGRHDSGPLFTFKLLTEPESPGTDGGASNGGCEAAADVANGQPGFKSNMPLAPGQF

IC50 [3] | residual activity [4] [%] | residual activity [5] [%] | residual activity [6] [%] | residual activity [7] [%] | residual activity [8] [%] | residual activity [9] [%] | residual activity [10] [%] | residual activity [11] [%] | inhibition [12] [%] | inhibition [13] [%] | inhibition [14] [%] | inhibition [15] [%] | inhibition [16] [%] | inhibition [17] [%] | SMILES | residual activity [1] [%] | residual activity [2] [%]
– | – | – | – | – | – | – | – | – | – | – | – | – | – | – | C[C@@H]1C[C@H](C)CN(c2ncc(Cl)c(Nc3ccc4c(c3)cc(OC(C)(C)C(=O)O)c(=O)n4C)n2)C1 | 95 | 95
43 nM (active) | 96 | 101 | 96 | 111 | 106 | 90 | 95 | 113 | 27 | -1.56 | 15.5 | -8.96 | 2.53 | -0.36 | CNC(=O)COc1cc2cc(Nc3nc(N4C[C@H](C)C[C@H](C)C4)ncc3Cl)ccc2n(C)c1=O | – | –
